# Laboratory results taken from patent publication US10995073B2 (CANCER RESEARCH TECHNOLOGY LIMITED, priority 2014, dated 2021).
# pEC50: −log10 of the molar value.
# Target: Human Full Length PARG (Homo sapiens (Human), UniProt Q86W56)
# Assay: PARG assay (in vitro enzyme, TR-FRET)
# Settings: PARG biochemical activity; read-out: PARG_EC50_ENZYME
# Method: PARG In vitro assays were conducted in a total volume of 15 ul in a standard 384 well format. 5 ul of Human Full Length PARG (Produced internally by Astra Zeneca), used at a final reaction concentration of […], was added to 5 ul of Ribosylated PARP substrate (also produced internally by Astra Zeneca) at final reaction concentration of 4.5 nM in assay buffer (50 mM Tris pH7.4, 0.1 mg/ml BSA, 3 mM EDTA, 0.4 mM EGTA, 1 mM DTT, 0.01% Tween 20, 50 mM KCl). The reaction was incubated at room temperature for 10 minutes and then 5 ul detection reagent was added. Detection Reagent consists of 42 nM MAb Anti-6HIS XL665 (CisBio: 61 HISXLB) and 2.25 nM Streptavidin Europium Cryptate (CisBio: 610SAKLB), both at 3× working stock concentrations (final concentrations of 14 nM and 0.75 nM respectively), in a detection buffer of 50 mM Tris pH7.4, BSA at 0.1 mg/ml and KF at 100 mM. Following incubation at room temperature for 60 minutes in the dark, TR-FRET signal was measured at Ex 340 and Em 665 and Em 620. A ratio was calculated as Em665/EM620x104 for each well and used to calculate percent inhibition for test compounds.
# Chain of Human Full Length PARG (Q86W56 whole entry): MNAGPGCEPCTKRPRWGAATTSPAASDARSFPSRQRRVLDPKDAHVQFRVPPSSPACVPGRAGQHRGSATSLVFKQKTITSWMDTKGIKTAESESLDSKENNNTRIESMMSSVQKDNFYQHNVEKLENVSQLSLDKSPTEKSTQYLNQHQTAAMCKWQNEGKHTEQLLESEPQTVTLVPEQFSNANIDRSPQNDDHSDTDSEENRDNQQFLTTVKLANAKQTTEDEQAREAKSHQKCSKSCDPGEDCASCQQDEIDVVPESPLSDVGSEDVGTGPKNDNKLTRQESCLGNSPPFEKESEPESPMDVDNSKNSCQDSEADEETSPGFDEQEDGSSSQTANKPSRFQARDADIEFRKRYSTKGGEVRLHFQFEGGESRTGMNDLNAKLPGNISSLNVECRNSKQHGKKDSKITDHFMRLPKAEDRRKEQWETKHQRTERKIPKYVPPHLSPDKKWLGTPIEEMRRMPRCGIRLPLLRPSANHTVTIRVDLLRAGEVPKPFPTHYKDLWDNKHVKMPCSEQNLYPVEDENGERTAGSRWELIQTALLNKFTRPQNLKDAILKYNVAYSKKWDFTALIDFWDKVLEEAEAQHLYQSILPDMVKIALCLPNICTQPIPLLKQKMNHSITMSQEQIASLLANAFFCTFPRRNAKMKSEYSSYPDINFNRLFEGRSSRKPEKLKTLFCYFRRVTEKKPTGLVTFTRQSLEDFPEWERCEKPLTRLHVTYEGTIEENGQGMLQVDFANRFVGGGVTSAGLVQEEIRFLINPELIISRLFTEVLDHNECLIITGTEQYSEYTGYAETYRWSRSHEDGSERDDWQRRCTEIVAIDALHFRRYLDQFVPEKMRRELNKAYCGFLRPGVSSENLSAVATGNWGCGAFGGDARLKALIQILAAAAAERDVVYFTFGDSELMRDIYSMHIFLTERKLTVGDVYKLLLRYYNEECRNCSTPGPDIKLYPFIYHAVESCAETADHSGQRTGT
row,Structure (SMILES),pEC50
1,"Cn1c(=O)n(-c2nnc(N)s2)c2cc(S(=O)(=O)NC3(C)CC3)ccc21 [Example 81, 3-(5-Amino-1,3,4-thiadiazol-2-yl)-1-methyl-N-(1-methylcyclopropyl)-2-oxo-benzimidazole-5-sulfonamide]",5.81
2,Cc1nsc(-n2c(=O)n(C)c3ccc(S(=O)(=O)NC4(CF)CC4)cc32)n1 [Example 177],4.92
